The text below walks through data of patent US8906904B2, “Alkoxy pyrazoles as soluble guanylate cyclase activators” (Boehringer Ingelheim International GmbH, priority 2012, dated 2014).

Data set [1] in a line: Assessment of solubility (McIlvaine buffers, 24 h shake, UPLC-UV). As to conditions: kinetic from dmso stock. It counts as physicochemical. In outline:
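Compounds from 10 mM DMSO stocks were shaken for 24 h at room temperature in McIlvaine buffers at pH 2.2, 4.5 and 6.8 (2.5% v/v DMSO final), then filtered. Filtrates were quantified by UPLC-UV at 254 nm against a 50:50 acetonitrile/water reference assumed fully dissolved, as a single determination.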

A short description of data set [2]: human liver microsome (HLM) metabolic stability assay. It counts as in vitro ADME. As to conditions: human liver microsomes; % hepatic blood flow calculated from t1/2. In outline:
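Compounds at 1 uM incubated with human liver microsomes plus NADPH at 37° C., sampled at 0, 5, 15, 30 and 60 min into cold acetonitrile and quantified by LC/MS/MS. t½ from the slope of ln % remaining vs time; CLint, CLh and % Qh derived from it (n=1).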

≈ marks a conversion by molar mass, not a printed value.

Turning to `COc1c(C(=O)O)cnn1-c1cccc(-c2cccc(C)c2OCc2ccc3c(c2Cl)CCN(CC(C)(C)C)C3)n1` [Compound 21], the solubility at 24 h turned out to be 96 µg/mL (≈ 167 µM) in data set [1] (pH 2.2, aqueous buffer); 62 µg/mL (≈ 108 µM) in data set [1] (pH 4.5, aqueous buffer); 60 µg/mL (≈ 104 µM) in data set [1] (pH 6.8, aqueous buffer). Further, the “HLM (% Qh)” value in data set [2] is reported as less than 24 % Qh.

Regarding `CCOc1c(C(=O)O)cnn1-c1cccc(-c2cccc(C)c2OCc2ccc3c(c2C)CCN(CC2COCCO2)C3)n1` (stereo in doubt) [Compound 185, 1-{6-[2-(2-(S)-1-[1,4]Dioxan-2-ylmethyl-5-methyl-1,2,3,4-tetrahydro-isoquinolin-6-ylmethoxy)-3-methyl-phenyl]-pyridin-2-yl}-5-ethoxy-1H-pyrazole-4-carboxylic acid], the solubility at 24 h stood at 100 µg/mL (≈ 167 µM) in data set [1] (pH 2.2, aqueous buffer); 83 µg/mL (≈ 139 µM) in data set [1] (pH 4.5, aqueous buffer); 82 µg/mL (≈ 137 µM) in data set [1] (pH 6.8, aqueous buffer). The “HLM (% Qh)” value in data set [2] is less than 24 % Qh.

In the case of `CCOc1c(C(=O)O)cnn1-c1cccc(-c2cccc(C)c2OCc2ccc3c(c2C)CCN(CC2(C)COC2)CC3)n1` [Compound 190], the solubility at 24 h in data set [1] (pH 2.2, aqueous buffer) was found to be 100 µg/mL (≈ 168 µM); in data set [1] (pH 4.5, aqueous buffer), 83 µg/mL (≈ 139 µM); in data set [1] (pH 6.8, aqueous buffer), 87 µg/mL (≈ 146 µM). The “HLM (% Qh)” value in data set [2] is recorded as 43 % Qh.

In the case of `COc1c(C(=O)O)cnn1-c1cccc(-c2cccc(C)c2OCc2ccc3c(c2C)CCN(C[C@H]2CCCCO2)C3)n1` [Compound 199], the solubility at 24 h in data set [1] (pH 2.2, aqueous buffer) was 120 µg/mL (≈ 206 µM); in data set [1] (pH 4.5, aqueous buffer), 96 µg/mL (≈ 165 µM); in data set [1] (pH 6.8, aqueous buffer), 92 µg/mL (≈ 158 µM). The “HLM (% Qh)” value in data set [2] is less than 24 % Qh.

Take `COc1c(C(=O)O)cnn1-c1cccc(-c2cccc(C)c2OCc2ccc3c(c2F)CCN([C@@H]2CCOC2)C3)n1` [Compound 252]: the solubility at 24 h is 94 µg/mL (≈ 168 µM) in data set [1] (pH 2.2, aqueous buffer); 73 µg/mL (≈ 131 µM) in data set [1] (pH 4.5, aqueous buffer); 62 µg/mL (≈ 111 µM) in data set [1] (pH 6.8, aqueous buffer). Further, the “HLM (% Qh)” value in data set [2] was less than 24 % Qh.

Turning to `COc1c(C(=O)O)cnn1-c1cccc(-c2cccc(C)c2OCc2cc(C)c3c(c2)CCN(CC2(C)COC2)C3)n1` [Compound 239], the solubility at 24 h in data set [1] (pH 2.2, aqueous buffer) was 91 µg/mL (≈ 160 µM); in data set [1] (pH 4.5, aqueous buffer), 71 µg/mL (≈ 125 µM); in data set [1] (pH 6.8, aqueous buffer), 72 µg/mL (≈ 127 µM). In data set [2], the “HLM (% Qh)” value was 25 % Qh.

Turning to `COc1c(C(=O)O)cnn1-c1cccc(-c2cccc(C)c2OCc2ccc3c(c2C)CCN(C2CCOCC2)C3)n1` [Compound 27], the solubility at 24 h in data set [1] (pH 2.2, aqueous buffer) worked out at 110 µg/mL (≈ 193 µM); in data set [1] (pH 4.5, aqueous buffer), 88 µg/mL (≈ 155 µM); in data set [1] (pH 6.8, aqueous buffer) it was 90 µg/mL (≈ 158 µM). Further, in data set [2], the “HLM (% Qh)” value is less than 24 % Qh.

In the case of `COc1c(C(=O)O)cnn1-c1cccc(-c2cccc(C)c2OCc2ccc3c(c2F)CCN(C[C@H]2COCCO2)C3)n1` [Compound 234], the solubility at 24 h came to 120 µg/mL (≈ 204 µM) in data set [1] (pH 2.2, aqueous buffer); 97 µg/mL (≈ 165 µM) in data set [1] (pH 4.5, aqueous buffer); 91 µg/mL (≈ 155 µM) in data set [1] (pH 6.8, aqueous buffer). For the same compound, in data set [2], the “HLM (% Qh)” value is on record as less than 24 % Qh.

Turning to `COc1c(C(=O)O)cnn1-c1cccc(-c2cccc(C)c2OCc2ccc3c(c2Cl)CCN(C2CCC2)C3)n1` [Compound 20], the solubility at 24 h in data set [1] (pH 2.2, aqueous buffer) is 95 µg/mL (≈ 170 µM); in data set [1] (pH 4.5, aqueous buffer), 72 µg/mL (≈ 129 µM); in data set [1] (pH 6.8, aqueous buffer) it was 68 µg/mL (≈ 122 µM). Besides, the “HLM (% Qh)” value in data set [2] is given as 38 % Qh.

For `COc1c(C(=O)O)cnn1-c1cccc(-c2ccccc2OCc2ccc3c(c2)CCN(C2CCOCC2)C3)n1` [Compound 209], the solubility at 24 h in data set [1] (pH 2.2, aqueous buffer) worked out at 110 µg/mL (≈ 203 µM); in data set [1] (pH 4.5, aqueous buffer) it was 81 µg/mL (≈ 150 µM); in data set [1] (pH 6.8, aqueous buffer), 84 µg/mL (≈ 155 µM). Besides, the “HLM (% Qh)” value in data set [2] was less than 24 % Qh.

`COc1c(C(=O)O)cnn1-c1cccc(-c2cccc(C)c2OCc2ccc3c(c2C)CCN(C[C@@H]2CCCCO2)C3)n1` [Compound 198]: the solubility at 24 h in data set [1] (pH 2.2, aqueous buffer) was determined as 120 µg/mL (≈ 206 µM); in data set [1] (pH 4.5, aqueous buffer), 100 µg/mL (≈ 172 µM); in data set [1] (pH 6.8, aqueous buffer), 93 µg/mL (≈ 160 µM). Besides, in data set [2], the “HLM (% Qh)” value is on record as less than 24 % Qh.

For the compound `CCOc1c(C(=O)O)cnn1-c1cccc(-c2cccc(C)c2OCc2cc(C)c3c(c2)CCN(CC2COCCO2)C3)n1` (stereo not drawn) [Compound 243], the solubility at 24 h in data set [1] (pH 2.2, aqueous buffer) stood at 100 µg/mL (≈ 167 µM); in data set [1] (pH 4.5, aqueous buffer), 82 µg/mL (≈ 137 µM); in data set [1] (pH 6.8, aqueous buffer) it was 81 µg/mL (≈ 135 µM). Also, the “HLM (% Qh)” value in data set [2] was less than 24 % Qh.

Take `CCc1cc(COc2c(C)cccc2-c2cccc(-n3ncc(C(=O)O)c3OC)n2)cc2c1CN(C1CCOCC1)CC2` [Compound 248]: the solubility at 24 h in data set [1] (pH 2.2, aqueous buffer) is 94 µg/mL (≈ 161 µM); in data set [1] (pH 4.5, aqueous buffer) it was 75 µg/mL (≈ 129 µM); in data set [1] (pH 6.8, aqueous buffer) it was 74 µg/mL (≈ 127 µM). For the same compound, the “HLM (% Qh)” value in data set [2] was less than 24 % Qh.

In the case of `COc1c(C(=O)O)cnn1-c1cccc(-c2cc(C)cc(C)c2OCc2ccc3c(c2)CCN(C2CCOCC2)C3)n1` [Compound 181], the solubility at 24 h in data set [1] (pH 2.2, aqueous buffer) came out at 110 µg/mL (≈ 193 µM); in data set [1] (pH 4.5, aqueous buffer) it was 87 µg/mL (≈ 153 µM); in data set [1] (pH 6.8, aqueous buffer), 88 µg/mL (≈ 155 µM). Moreover, the “HLM (% Qh)” value in data set [2] is less than 24 % Qh.

`CCc1cc(COc2c(C)cccc2-c2cccc(-n3ncc(C(=O)O)c3OC)n2)cc2c1CN(C1COC1)CC2` [Compound 249]: the solubility at 24 h in data set [1] (pH 2.2, aqueous buffer) is 94 µg/mL (≈ 169 µM); in data set [1] (pH 4.5, aqueous buffer), 67 µg/mL (≈ 121 µM); in data set [1] (pH 6.8, aqueous buffer), 93 µg/mL (≈ 168 µM). The “HLM (% Qh)” value in data set [2] is given as less than 24 % Qh.
